The source of these data is ChEMBL document CHEMBL1811826, “Structure-activity relationship and docking studies of thiazolidinedione-type compounds with monoamine oxidase B” (Bioorg Med Chem Lett, 2011).

As a reminder, the IC50 is the concentration at which inhibition is half-maximal.

Each structure is given as a SMILES string. Active and inactive are the calls of the source. No cut-off for these calls is given here.

Series [1] has as its target T1, Amine oxidase [flavin-containing] A (Homo sapiens, UniProt P21397).
T1 sequence (P21397 whole entry): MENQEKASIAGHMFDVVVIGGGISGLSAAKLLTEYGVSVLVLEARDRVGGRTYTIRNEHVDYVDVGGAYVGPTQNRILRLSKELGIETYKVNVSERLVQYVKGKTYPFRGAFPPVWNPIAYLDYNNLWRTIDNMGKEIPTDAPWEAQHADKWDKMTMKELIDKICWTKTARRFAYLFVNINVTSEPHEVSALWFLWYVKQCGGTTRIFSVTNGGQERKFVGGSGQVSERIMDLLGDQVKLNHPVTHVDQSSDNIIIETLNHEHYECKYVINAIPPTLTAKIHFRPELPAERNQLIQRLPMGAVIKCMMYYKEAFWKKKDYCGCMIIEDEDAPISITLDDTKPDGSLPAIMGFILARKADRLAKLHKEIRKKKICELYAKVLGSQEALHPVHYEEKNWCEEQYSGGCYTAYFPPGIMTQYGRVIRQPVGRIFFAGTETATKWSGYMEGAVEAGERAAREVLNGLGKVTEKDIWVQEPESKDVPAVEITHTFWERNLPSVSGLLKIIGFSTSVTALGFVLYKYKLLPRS
The experiment in a line: Inhibition of human recombinant MAOA assessed as inhibition of kynuramine conversion to fluorescent metabolite 4-hydroxyquinoline by fluorimetry.

Series [2] deals with T2, Amine oxidase [flavin-containing] B (Homo sapiens, UniProt P27338).
T2 sequence (P27338 whole entry): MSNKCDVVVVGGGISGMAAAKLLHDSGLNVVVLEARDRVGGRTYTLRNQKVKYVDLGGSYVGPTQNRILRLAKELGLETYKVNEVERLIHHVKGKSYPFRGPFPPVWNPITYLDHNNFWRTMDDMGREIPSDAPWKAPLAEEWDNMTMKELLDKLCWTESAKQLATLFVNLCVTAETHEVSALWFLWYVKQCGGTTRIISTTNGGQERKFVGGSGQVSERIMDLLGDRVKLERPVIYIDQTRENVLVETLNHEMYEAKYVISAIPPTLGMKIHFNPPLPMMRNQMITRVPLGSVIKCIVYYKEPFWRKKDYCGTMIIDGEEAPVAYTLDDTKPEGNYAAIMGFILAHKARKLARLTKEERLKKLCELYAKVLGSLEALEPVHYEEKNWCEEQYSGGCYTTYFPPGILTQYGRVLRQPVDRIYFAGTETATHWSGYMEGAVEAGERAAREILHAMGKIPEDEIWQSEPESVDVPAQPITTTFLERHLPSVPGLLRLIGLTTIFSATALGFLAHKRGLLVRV
The experiment in a line: Inhibition of human recombinant MAOB by amplex red assay.

Series [3] relates to Mus musculus. The experiment in a line: Neuroprotective activity in MPTP-stimulated C57BL/6 mouse assessed as increase in striatal dopamine content at 10 mg/kg, sc administered 1 hr before MPTP challenge measured after 7 days by HPLC method. The format is functional, organism-based. Details: dose 10 mg/kg.
Series [4] relates to Mus musculus. The experiment in a line: Toxicity in C57BL/6 mouse assessed as striatal dopamine level at 10 mg/kg, sc measured after 7 days by HPLC method. The format is organism-based. More on the design: dose 10 mg/kg, route subcutaneous. Particulars: in vivo, 168 h.

Consider `COc1ccccc1/C=C1\SC(=O)N(CCN)C1=O`, for which, in series [1], the IC50 is 29.8 µM.

For `O=C1NC(=S)S/C1=C/c1ccncc1`, the IC50 in series [1] came out at 21.8 µM.

As to `O=C(O)C(Cc1ccc(O)cc1)N1C(=O)CSC1=S` (stereo unspecified), the IC50 in series [2] is 273 µM.

For `N#CCCN1C(=O)S/C(=C\c2ccccc2)C1=O`, in series [1], the IC50 turned out to be 3.49 µM.

As for `O=C(/C=C1/SC(=O)NC1=O)Nc1ccccc1`, the IC50 in series [1] is 35.3 µM; in series [2] it was 22 µM.

Take `CC(C)(C)c1cc(CC2SC(=O)N=C2O)cc(C(C)(C)C)c1O` (stereo unspecified): the outcome in the series on Mus musculus [3] was Active. Moreover, the Activity result in the series with Mus musculus [4] is given as “Non-toxic”. Besides, in series [2], the IC50 amounted to 2.38 µM.

Turning to `CN1C(=O)/C(=C\c2ccccc2)SC1=S`, the IC50 in series [1] came to 0.52 µM; in series [2] it was 10.5 µM.

Turning to `O=C1NC(=O)/C(=C\c2cc(Br)c(O)c(Br)c2)S1`, the IC50 worked out at 39.9 µM in series [1] and 1.02 µM in series [2].

As to `COc1cc(/C=C2/SC(=S)NC2=O)c(OC)cc1O`, the IC50 in series [1] is 380 µM; in series [2] it was 31.6 µM.

As for `COc1cc(/C=C2\SC(=S)NC2=O)ccc1O`, the IC50 in series [1] was 28.6 µM; in series [2] it was 2.49 µM.

As for `O=C1NC(=O)/C(=N\c2ccc(C(=O)O)cc2)S1`, the IC50 amounted to 37.3 µM in series [1] and 56 µM in series [2].

Turning to `CN1C(=O)/C(=C\c2ccc(Cl)cc2)SC1=S`, the concentration for half-maximal inhibition (IC50) in series [1] worked out at 399 µM; in series [2] it was 36.5 µM.

In the case of `O=C(O)CCN1C(=O)/C(=C\c2ccccc2)SC1=S`, the results for the IC50 in series [1] and in series [2] were 70.5 µM and 604 µM, respectively.

Consider `Cc1cc(CC2SC(=O)NC2=O)cc(C)c1O` (stereo unspecified), for which the values for the IC50 in series [1] and in series [2] were 26.2 µM and 16.1 µM, respectively.

With `N=C1NC(=O)C(Cc2ccccc2)S1` (stereo unspecified), in series [2], the IC50 worked out at 24.1 µM.

Consider `O=C1NC(=O)/C(=C\c2ccncc2)S1`, for which the IC50 in series [1] turned out to be 13 µM.

Regarding `CCOc1ccc(/C=C2\SC(=O)N(CCN)C2=O)cc1`, the IC50 in series [1] is 1.04 µM.

As for `CC(=O)c1ccc(CC2SC(=N)NC2=O)cc1` (stereo unspecified), the IC50 in series [1] was 252 µM; in series [2] it was 309 µM.

On to `O=C1NC(=O)/C(=C\c2cccc(Br)c2)S1`, for which the concentration for half-maximal inhibition (IC50) turned out to be 67.3 µM in series [1] and 6.07 µM in series [2].

With `CCCN1C(=O)/C(=C\c2ccncc2)SC1=S`, the results for the IC50 in series [1] and in series [2] were 10.6 µM and 0.8 µM, respectively.

For the compound `O=C1NC(=O)C(Cc2ccc(O)cc2)S1` (stereo unspecified) [GLITAZONE], the results for the IC50 in series [1] and in series [2] were 194 µM and 225 µM, respectively.

For the compound `CN(C)c1ccc(/C=C2\SC(=O)N(CCN)C2=O)cc1`, the IC50 in series [1] is 6.88 µM.

Regarding `Cc1cc(C)cc(CC2SC(=O)NC2=O)c1` (stereo unspecified), the half-maximal inhibitory concentration (IC50) in series [1] amounted to 50.5 µM.

`O=C(/C=C1/SC(=O)NC1=O)Nc1cccc(O)c1`: the IC50 in series [1] is 35.3 µM; in series [2], 11 µM.

On to `O=C1NC(=O)/C(=C/c2ccc3nccnc3c2)S1`, for which the IC50 in series [1] was 166 µM.
